Molecules are shown by their SMILES.

The test system of test [1] is C57/BL6 WT mice subjected to TAC pressure overload. The test can be described thus: In vivo hemodynamics, PV loop analysis, in TAC mice. Also noted: species or system mouse. The following applies: TAC 3 weeks. The source says: Male NOS3 null mice (NOS3^−/−) and C57/BL6 WT controls (8-11 weeks, Jackson Labs, Bar Harbor, Me., USA) were used. Pressure overload was produced by transverse aorta constriction (TAC). Briefly, The aortic arch was isolated by entering the extrapleural space between the second and third rib, and afterwards the transverse aorta was isolated between the right and left carotid arteries. A 7-0 prolene suture ligature was tied around the transverse aorta against a 27-gauge needle to produce a 65-70% constriction after the removal of the needle. After closing the chest, animals were extubated, and a subcutaneous injection of morphine sulphate 0.2 mg, was administered before they returned to their cages. Animal's ventilatory and circulatory status was checked every 30 minutes during the first 2 hours. Sham-operated mice underwent the same operation except for aortic constriction. […] Animals were randomized to receive placebo or BH4 (120 mg/kg/d) for the next 5 weeks. At the end of the study, i.e. at 9 weeks, animal were sacrificed to receive tissue or underwent in vivo PV-loop analysis. […] Control mice were subject to sham operations, and animals were studied 3-9 weeks following surgery. An additional group of wild-type animals were subjected to TAC for 3 weeks while co-treated with oral tetrahydrobiopterin (BH4) (Sigma-Aldrich) (1 mg/g food) mixed in their rodent chow, providing 5 mg/day based on 4-6 g daily diet^8.
Two different BH4 treatment protocols are used. For experiments related to FIGS. 1-7, where prevention of cardiac indications is described BH4 is provided orally as a treatment starting 2 days after TAC surgery (once mice are again eating oral diet). For those figures related to treatment of established cardiac indications, FIGS. 8-23, BH4 is provided orally but this is delayed for 4 weeks to establish substantial cardiac hypertrophy, remodeling, and NOS-uncoupling. Then the treatment is provided for the remaining 5 week period.
In vivo left ventricular (LV) function was assessed by pressure-volume catheter^12,13. Mice were anesthetized with 1-2% isoflurane, urethane ([…], i.p.), etomidate (5-10 mg/kg, i.p.), and morphine (1-2 mg/kg, i.p.), underwent tracheostomy, and were ventilated with 6-7 μL/g tidal volume and 130 breaths/min. Volume expansion (12.5% human albumin, 50-100 μL over 5 min) was provided through a 30 G cannula via the right external jugular vein. The left ventricular apex was exposed through an incision between the 7-8th rib, and a catheter, specifically a 1.4 Fr PV catheter (SPR 839, Millar Instruments, Inc.), was advanced through the apex to lie along the longitudinal axis. Absolute volume was calibrated, and pressure-volume data was measured at steady state and during transient reduction of venous return as reported^13

The subject of the next test is reactive oxygen species. The test can be described thus: Reactive oxygen species generation in TAC myocardium (luminol, lucigenin, DHE, DCF). In kind it is in vivo, mouse. Conditions: WT mice, TAC 3 weeks, oral co-treatment. Here is the method: Reactive oxygen species generation was examined by several independent methods. Superoxide production in left ventricular tissue homogenates was determined by luminol-enhanced chemiluminescence (EMD Biosciences). Flash frozen myocardium was homogenized in iced PBS buffer, centrifuged, and the precipitate re-suspended in assay buffer to a final concentration of 100 μM luminol following manufacturer's instructions. Phorbol-12-myristate-13-acetate or other oxidase stimulators were not used in the assay. Data were normalized by sample weight. In addition, fresh frozen left ventricular myocardium (8 μm slices) was incubated for 1 hour at 37° C. with florescent dyes 2′,7′-dichlorodihydro-fluorescein diacetate (DCF; Molecular Probes; 4 μM) (Invitrogen Corp.) reflecting hydrogen peroxide formation (DCF staining localizes principally to mitochondria within myocytes), dihydroethidium (DHE; Molecular Probes; 2 μM) which assesses O2^− formation (typically nuclear localization), and nitrotyrosine formation (polyclonal nitrotyrosine Ab, 1:100; Upstate), which can reflect formation of ONOO^−. Imaging was performed on a Zeiss inverted epifluorescence microscope attached to an argon-krypton laser confocal scanning microscope (UltraVIEW, Perkin Elmer Life Sciences, Inc.). […] Nitrotyrosine was also quantitatively assessed by ELISA assay (Oxis International).

A further test concerns NOS. Nature of the test: Calcium dependent NOS activity, arginine to citrulline conversion, in myocardial homogenates of TAC hearts. It counts as in vivo, mouse. Conditions: WT mice, TAC 3 weeks, oral co-treatment. On the procedure: SDS-resistant NOS3 dimers and monomers were assayed using low-temperature SDS PAGE under reducing or non-reducing conditions, as described previously^7. NOS3 was immunoprecipitated as described^16 and the resulting samples added to fivefold Laemmli buffer (0.32 mol/l Tris-HCl, pH 6.8, 0.5 mol/l glycine, 10% SDS, 50% glycerol, and 0.03% bromophenol blue) in non-reducing gel (no 2-mercaptoethanol) to identify dimer dissociation due to reduced disulfide bridges. To provide fully denatured control lanes, samples were boiled for 15 minutes prior to loading. Electrophoresis was performed using Tris glycine 6% gels (Invitrogen Corp.), and gels and buffers maintained in an ice bath at 4° C. and stained (SimplyBlue, Invitrogen Corp.). Calcium dependent and independent NOS activity was determined from myocardial homogenates by [3H] L-arginine to [3H] citrulline conversion (Sigma-Aldrich) as described^16. An alternative approach involved more direct Western blot analysis without requiring initial NOS IP. Cold SDS-Page Western blot analysis was performed using a self-made […] SDS-Tris gel. After overnight running on ice, the gel was transferred for 3 h to nitrocellulose membrane. […] Bound antibodies were detected with horseradish peroxidase-conjugated anti-mouse IgG and visualize with an enhanced chemiluminescence detection system.

Setting [2] is: oral co-treatment 1 mg/g food, mean ± sem.

Turning to `Nc1nc2c(c(=O)[nH]1)NC(C(O)C(O)CO)CN2` (centres unmarked) [H4N, tetrahydroneopterin], in test [1] (oral co-treatment), the “functional or remodeling response to TAC” value is “no effect”. Besides, in test [1] (setting [2]), the “Arterial Elastance” value is 11.4 ± 0.7 mmHg/μL, the “Ejection Fraction” value came to 43.4 ± 9.8%, the “End-diastolic Volume” value is 38.8 ± 8.0 µL and the “End-systolic Elastance” value was determined as 41.0 ± 9.3 mmHg/μL · g. In test [1] (setting [2]), the “End-systolic Volume” value came out at 24.0 ± 7.6 µL, the “Heart RateR” value came to 501.2 ± 28.5 min⁻¹, the “LV Systolic Pressure” value came out at 177.8 ± 4.6 mmHg and the “Peak Power Index” value is recorded as 31.8 ± 5.8 mmHg/s. For the same compound, in test [1] (setting [2]), the Tau amounted to 5.5 ± 0.36 ms, the dPdtmn was −10725 ± 971.0 mmHg/s and the dPdtmx was determined as 11154 ± 520 mmHg/s. The “reactive oxygen species generation (luminol chemiluminescence, DHE, DCF)” value with reactive oxygen species is on record as “None of these changes were observed”. The “Ca^2+-dependent NOS activity” value in the test with NOS is “unaltered”.

For the origin of these results see US20100004248A1, “Use of a Nitric Oxide Synthase Modulator for the Treatment of Cardiac Indications” (priority 2005, published 2010).
